Reference: patent US20220008391A1, “NOVEL COMPOUNDS FOR CONTROLLING ARTHROPODS” (Bayer Animal Health GmbH, priority 2018, published 2022)
In brackets after ≈: the same amount, converted by molar mass.

Legend:
[1] = Measurement of solubility in buffer at pH 6.5; format: physicochemical; details: aqueous buffer, kinetic from dmso stock; PBS buffer pH 6.5, shaken 24h at rt, LC-MSMS; read-out: Solubility of example compounds at pH 6.5
Procedure: Measurement of Solubility in Buffer at pH 6.5 2-4 mg of the test compound are dissolved in DMSO to reach a concentration of 50 g/L (solution A). To 10 μl of this solution 960 μl PBS buffer pH 6.5 are added (final concentration: 515 μg/1); the mixture is shaken for 24h at rt in a 96 well plate. An aliquot is centrifuged at 42000 rpm für 30 min. The supernatant is diluted with acetonitrile/water (8:2) 1:10 and 1:1000 resp. This diluted samples are analyzed by LC-MSMS. Calibration: 10 μl of solution A are diluted with 823 μl DMSO (final concentration: 600 μg/ml), which is further diluted with acetonitrile/water 8:2 by a factor of 100 (provides solution B). The calibration curve is obtained from solution B by further diluting with acetonitrile/water 8:2 with target concentrations of 1.2-12-60-600 ng/ml and injecting these four solutions for MS measurement. PBS-Puffer: 6.18 g sodium chloride and 3.96 g sodium dihydrogen phosphate are dissolved in 1 L aqua dist., the pH is adjusted to 6.5 with 1N sodium hydroxide. The following conditions were used for quantification: Autosampler without auto inject ahead setting, column: Waters OASIS HLB, 2,1×20 mm, 25μ, column temperature: 30° C., flow rate: 2.5 mL/min, injected volume: 2 μl, Splitter (before MS) 1:20.

Ctenocephalides felis = test: Antiparasitic activity after administration to rats, fleas; format: in vivo
Procedure: (§1) Measurement of the Antiparasitic Activity after Administration of a Prodrug to Rats Compounds were dissolved in the appropriate volume of glycerol formal (p.a.) just before application to the animals (dose volume was adjusted to 0.03 mL/kg bodyweight). 5 rats per group were either injected intraperitoneally or subcutaneously. Rats were infested with 30 Dermacentor variabilis nymphs on study days −2, 7, 14, 21, 28, 35 and 30 adult Ctenocephalides fleas on study days −1, 8, 15, 22, 29, 36. […] Percent efficacy was calculated as arithmetic mean parasite numbers as life attached tick numbers and live flea numbers of the respective study group in comparison to parasite counts on a placebo-treated control group. Infestation of groups with less than 75% efficacy on two consecutive counting occasions will terminated for the respective parasite.

Dermacentor variabilis = test: Antiparasitic activity after administration to rats, tick nymphs; format: in vivo
Procedure: as §1

With `N#CC1(N(COC(=O)OCCCOC(=O)/C=C/C(=O)O)C(=O)c2cc(-c3cnn(-c4c(Cl)cc(C(F)(C(F)(F)F)C(F)(F)F)cc4OC(F)(F)F)c3)ccc2Cl)CC1` [Example 2, (12E)-1-(2-Chloro-5-{1-[2-chloro-4-(1,1,1,2,3,3,3-heptafluoropropan-2-yl)-6-(trifluoromethoxy)phenyl]-1H-pyrazol-4-yl}phenyl)-2-(1-cyanocyclopropyl)-1,5,11-trioxo-4,6,10-trioxa-2-azatetradec-12-en-14-oic Acid] the solubility at 24 h [1] was 4 µg/mL (≈ 4.55 µM), the “Efficacy SD42” value (Ctenocephalides felis; sc, CF A, study day 42, 13.33-13.98 mg/kg prodrugs) was 69% and the “Efficacy SD42” value (Dermacentor variabilis; sc, DV N, study day 42, 13.33-13.98 mg/kg prodrugs) was 82%.

With `CC(C)(COC(=O)/C=C/C(=O)O)COC(=O)OCN(C(=O)c1cc(-c2cnn(-c3c(Cl)cc(C(F)(C(F)(F)F)C(F)(F)F)cc3OC(F)(F)F)c2)ccc1Cl)C1(C#N)CC1` [Example 4, (12E)-1-(2-chloro-5-{1-[2-chloro-4-(1,1,1,2,3,3,3-heptafluoropropan-2-yl)-6-(trifluoromethoxy)phenyl]-1H-pyrazol-4-yl}phenyl)-2-(1-cyanocyclopropyl)-8,8-dimethyl-1,5,11-trioxo-4,6,10-trioxa-2-azatetradec-12-en-14-oic Acid] the solubility at 24 h [1] was 2 µg/mL (≈ 2.2 µM), the “flea efficacy on rats compared with the parent drug also injected subcutaneously” value (Ctenocephalides felis; SC) was “superior” and the “tick efficacy on rats compared with the parent drug also injected subcutaneously” value (Dermacentor variabilis; SC) was “superior”.

With `Cn1nc(C(F)(F)C(F)(F)F)c(C(F)(F)F)c1-n1cc(-c2ccc(Cl)c(C(=O)N(COC(=O)O[C@@H]3CCC[C@H]3OC(=O)CCC(=O)O)C3(C#N)CC3)c2)cn1` [Example 38, 4-({(1R,2R)-2-[({[{2-Chloro-5-[2′-methyl-5′-(pentafluoroethyl)-4′-(trifluoromethyl)-2′H-[1,3′-bipyrazol]-4-yl]benzoyl}(1-cyanocyclopropyl)amino]methoxy}carbonyl)oxy]cyclopentyl}oxy)-4-oxobutanoic Acid] the solubility at 24 h [1] was 37 µg/mL (≈ 45.6 µM).

Molecule `CC(C)(CC(=O)OCCOC(=O)OCN(C(=O)c1cc(-c2cnn(-c3c(Cl)cc(C(F)(C(F)(F)F)C(F)(F)F)cc3OC(F)(F)F)c2)ccc1Cl)C1(C#N)CC1)C(=O)O` [Example 9, 1-(2-Chloro-5-{1-[2-chloro-4-(1,1,1,2,3,3,3-heptafluoropropan-2-yl)-6-(trifluoromethoxy)phenyl]-1H-pyrazol-4-yl}phenyl)-2-(1-cyanocyclopropyl)-12,12-dimethyl-1,5,10-trioxo-4,6,9-trioxa-2-azatridecan-13-oic Acid] has a solubility at 24 h [1] of 5 µg/mL (≈ 5.58 µM).

For `N#CC1(N(COC(=O)O[C@H]2CC[C@@H](C(=O)O)CC2)C(=O)c2cc(-c3cnn(-c4c(Cl)cc(C(F)(C(F)(F)F)C(F)(F)F)cc4OC(F)(F)F)c3)ccc2Cl)CC1` [Example 17, Cis-4-[({[(2-Chloro-5-{1-[2-chloro-4-(1,1,1,2,3,3,3-heptafluoropropan-2-yl)-6-(trifluoromethoxy)phenyl]-1H-pyrazol-4-yl}benzoyl)(1-cyanocyclopropyl)amino]methoxy}carbonyl)oxy]cyclohexane-1-carboxylic Acid], the solubility at 24 h [1] was 2 µg/mL (≈ 2.35 µM).

Molecule `Cn1nc(C(F)(F)C(F)(F)F)c(C(F)(F)F)c1-n1cc(-c2ccc(Cl)c(C(=O)N(COC(=O)OCC(C)(C)COC(=O)/C=C/C(=O)O)C3(C#N)CC3)c2)cn1` [Example 39, (12E)-1-{2-chloro-5-[2′-methyl-5′-(pentafluoroethyl)-4′-(trifluoromethyl)-2′H-[1,3′-bipyrazol]-4-yl]phenyl}-2-(1-cyanocyclopropyl)-8,8-dimethyl-1,5,11-trioxo-4,6,10-trioxa-2-azatetradec-12-en-14-oic Acid] has a solubility at 24 h [1] of 43 µg/mL (≈ 53 µM).

For `N#CC1(N(COC(=O)O[C@H]2CCC[C@H]2OC(=O)/C=C/C(=O)O)C(=O)c2cc(-c3cnn(-c4c(Cl)cc(C(F)(C(F)(F)F)C(F)(F)F)cc4OC(F)(F)F)c3)ccc2Cl)CC1` (relative stereo) [Example 6, (2E)-4-({(rel 1R,2S)-2-[({[(2-chloro-5-{1-[2-chloro-4-(1,1,1,2,3,3,3-heptafluoropropan-2-yl)-6-(trifluoromethoxy)phenyl]-1H-pyrazol-4-yl}benzoyl)(1-cyanocyclopropyl)amino]methoxy}carbonyl)oxy]cyclopentyl}oxy)-4-oxobut-2-enoic Acid], the solubility at 24 h [1] was 4 µg/mL (≈ 4.42 µM).

Work on `N#CC1(N(COC(=O)OCCCC(=O)O)C(=O)c2cc(-c3cnn(-c4c(Cl)cc(C(F)(C(F)(F)F)C(F)(F)F)cc4OC(F)(F)F)c3)ccc2Cl)CC1` [Example 37, 4-[({[(2-Chloro-5-{1-[2-chloro-4-(1,1,1,2,3,3,3-heptafluoropropan-2-yl)-6-(trifluoromethoxy)phenyl]-1H-pyrazol-4-yl}benzoyl)(1-cyanocyclopropyl)amino]methoxy}carbonyl)oxy]butanoic Acid] yielded a solubility at 24 h [1] of 7 µg/mL (≈ 8.65 µM).
